pIC50: −log10 of the molar value.
Target: T1, human calcium-sensing receptor (CaSR) (Homo sapiens, UniProt P41180)
T1 construct: expressed in transfected cells
T1 sequence (P41180 20-1078): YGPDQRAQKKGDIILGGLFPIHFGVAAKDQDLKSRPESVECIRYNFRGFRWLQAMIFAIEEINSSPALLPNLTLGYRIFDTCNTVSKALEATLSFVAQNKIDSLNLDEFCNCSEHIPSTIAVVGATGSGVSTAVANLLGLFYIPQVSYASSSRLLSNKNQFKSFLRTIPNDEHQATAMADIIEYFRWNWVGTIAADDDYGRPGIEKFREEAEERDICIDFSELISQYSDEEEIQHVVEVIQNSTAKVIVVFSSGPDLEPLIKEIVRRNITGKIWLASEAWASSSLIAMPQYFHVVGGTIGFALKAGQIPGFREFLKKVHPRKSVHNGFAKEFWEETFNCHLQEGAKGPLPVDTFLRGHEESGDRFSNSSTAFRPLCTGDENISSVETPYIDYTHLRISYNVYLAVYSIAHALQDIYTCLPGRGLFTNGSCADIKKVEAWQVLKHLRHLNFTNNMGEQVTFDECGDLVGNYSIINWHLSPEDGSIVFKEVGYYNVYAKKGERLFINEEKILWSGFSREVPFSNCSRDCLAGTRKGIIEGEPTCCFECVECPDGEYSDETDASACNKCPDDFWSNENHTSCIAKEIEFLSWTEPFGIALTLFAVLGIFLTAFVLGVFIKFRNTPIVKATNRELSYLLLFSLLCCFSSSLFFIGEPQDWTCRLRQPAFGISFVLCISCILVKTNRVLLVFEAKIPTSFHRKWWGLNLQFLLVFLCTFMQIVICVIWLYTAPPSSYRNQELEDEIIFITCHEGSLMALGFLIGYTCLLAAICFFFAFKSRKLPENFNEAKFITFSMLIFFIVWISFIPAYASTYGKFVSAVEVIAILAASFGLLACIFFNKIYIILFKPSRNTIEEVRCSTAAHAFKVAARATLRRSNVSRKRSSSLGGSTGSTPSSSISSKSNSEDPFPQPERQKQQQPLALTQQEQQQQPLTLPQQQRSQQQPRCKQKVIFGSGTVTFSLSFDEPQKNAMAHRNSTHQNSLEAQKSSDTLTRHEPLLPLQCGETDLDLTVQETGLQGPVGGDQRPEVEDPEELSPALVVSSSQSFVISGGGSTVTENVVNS
Experiment: intracellular Ca assay, CaSR antagonist activity in HEK293/hCaSR cells
Type: cell-based
Details: Fura2-AM, inhibition of response to calcium chloride ligand solution, read-out: IC50 values according to the intracellular Ca assay (CaSR antagonist activity)
Description: HEK293 cells stably expressing human calcium-sensing receptor (CaSR) (termed HEK293/hCaSR cells) were used. HEK293/hCaSR cells were cultured in a culture medium [DMEM medium containing 0.5 mg/mL Geneticin, 50 Unit/mL penicillin, 50 μg/mL streptomycin and 10% fetal bovine serum (FBS), all manufactured by Invitrogen] to semiconfluent in an incubator at 37° C. under 5% carbon dioxide atmosphere.
Cultured cells were washed with phosphate buffered saline (PBS(−), manufactured by Dainippon Sumitomo Pharmaceutical Company) which had been prewarmed to 37° C., added with PBS(−) containing 10 mM ethylenediamine tetraacetic acid (EDTA), and then incubated in an incubator at 37° C. for 10 minutes. After adding the culture medium to separate the cells, cell suspension was transferred to a centrifuge tube. Cells were collected by centrifuge at 1,500 rpm for 3 minutes, and resuspended in Ca assay buffer [20 mM HEPES buffer (pH 7.4), 115 mM sodium chloride, 5.4 mM potassium chloride, 0.8 mM magnesium chloride, 0.8 mM calcium chloride, 13.8 mM D(+)-glucose (all manufactured by Wako Pure Chemicals) and 0.1% bovine serum albumin (manufactured by SIGMA)] containing 0.2% Pluronic F-127 (manufactured by Molecular Probes) and […] Fura2-AM (manufactured by DOJINDO LABORATORIES) to obtain a cell suspension of 5×10^6 cells/mL. After incubating at 37° C. for 30 minutes, the cells were washed twice with the Ca assay buffer and suspended in the same buffer to obtain a cell suspension of 1×10^6 cells/60 μL. 60 μL of the cell suspension was aliquoted to each well of a 96 well UV microplate (manufactured by Corning Co.) to give a cell plate.
The test compound was diluted with the Ca assay buffer to five times the final concentration and then 80 μL of the diluted compound was applied to each well of a 96 well round bottomed microplate (manufactured by Corning Co.) to give a sample plate. 80 μL of the Ca assay buffer containing 7.5 mM calcium chloride (i.e., ligand solution) was applied to each well of a 96 well round bottomed microplate to give a ligand plate. Then, thus prepared sample plate, ligand plate, and the cell plate were placed in Functional Drug Screening System (FDSS) 4000 (manufactured by Hamamatsu Photonics K.K.) which had been preswitched on and prewarmed to 37° C. Measurements were then carried out as follows. After incubating the cell plate for 180 seconds, fluorescence intensity was measured every two seconds (excitation wavelength; 340 nm and 380 nm, measurement wavelength; 500 nm). After the measurement for 40 seconds, 20 μL of the test compound solution from the sample plate was added to the cell plate, followed by continuous measurement for 160 seconds. Then, 20 μL of the ligand solution from the ligand plate was added to the cell plate, followed by continuous measurement for 100 seconds.
Amount of change in intracellular Ca concentration is indicated as a peak height of the ratio of the fluorescence intensity with excitation of 340 nm and 380 nm (i.e., fluorescence intensity with excitation at 340 nm/fluorescence intensity with excitation at 380 nm) that is obtained from the difference between the maximum ratio after adding the ligand solution and the ratio before adding the ligand solution. Further, when the peak height obtained from the Ca assay buffer containing no test compound has inhibition ratio of 0% while the peak height obtained from the Ca assay buffer containing no calcium chloride as a ligand solution has inhibition ratio of 100%, inhibition ratio for each test compound (i.e., CaSR antagonist activity) was calculated.

SMILES	pIC50
CN(C[C@H](O)CNC(C)(C)Cc1ccc2ccccc2c1)S(=O)(=O)c1cccc(-c2ccc(NCC(=O)O)cc2)c1 [Exp. 3-28, (R)-2-(3′-(N-(2-hydroxy-3-(2-methyl-1-(naphthalen-2-yl)propan-2-ylamino)propyl)-N-methylsulfamoyl)biphenyl-4-ylamino)acetic acid]	6.00 to 6.52
CN(C[C@H](O)CNC(C)(C)Cc1ccc2ccccc2c1)S(=O)(=O)Cc1ccc(-c2ccc(CCC(=O)O)cc2)cc1 [Exp. 3-90, (R)-3-(4′-((N-(2-hydroxy-3-(2-methyl-1-(naphthalen-2-yl)propan-2-ylamino)propyl)-N-methylsulfamoyl)methyl)biphenyl-4-yl)propionic acid]	5.52 to 6.00
COc1ccc(-c2cc(S(=O)(=O)N(C)C[C@H](O)CNC(C)(C)CC3Cc4ccccc4C3)sc2Cl)cc1CCC(=O)O [Exp. 5-29, (R)-3-(5-(2-chloro-5-(N-(3-(1-(2,3-dihydro-1H-inden-2-yl)-2-methylpropan-2-ylamino)-2-hydroxypropyl)-N-methylsulfamoyl)thiophen-3-yl)-2-methoxyphenyl)propionic acid]	≥ 6.52
Cc1ccc(CC(C)(C)NC[C@@H](O)CN(C)S(=O)(=O)c2cccc(-c3cccc(C(=O)O)c3)c2)cc1F [Exp. 3-63, (R)-3′-(N-(3-(1-(3-fluoro-4-methylphenyl)-2-methylpropan-2-ylamino)-2-hydroxypropyl)-N-methylsulfamoyl)biphenyl-3-carboxylic acid]	5.52 to 6.00
CCc1cc(-c2ccc(CCC(=O)O)cc2)ccc1S(=O)(=O)N(C)C[C@H](O)CNC(C)(C)CCCc1ccccc1 [Exp. 3-116, (R)-3-(3′-ethyl-4′-(N-(2-hydroxy-3-(2-methyl-5-phenylpentan-2-ylamino)propyl)-N-methylsulfamoyl)biphenyl-4-yl)propionic acid]	≥ 6.52
CCc1cc(-c2cc(CCC(=O)O)ccc2F)ccc1S(=O)(=O)N(C)C[C@H](O)CNC(C)(C)CC1Cc2ccccc2C1 [Exp. 5-21, (R)-3-(4′-(N-(3-(1-(2,3-dihydro-1H-inden-2-yl)-2-methylpropan-2-ylamino)-2-hydroxypropyl)-N-methylsulfamoyl)-3′-ethyl-6-fluorobiphenyl-3-yl)propionic acid]	≥ 6.52
CN(C[C@H](O)CNC(C)(C)Cc1ccc2ccccc2c1)S(=O)(=O)c1ccc(-c2ccc(C(=O)O)c(O)c2)cc1 [Exp. 3-46, (R)-3-hydroxy-4′-(N-(2-hydroxy-3-(2-methyl-1-(naphthalen-2-yl)propan-2-ylamino)propyl)-N-methylsulfamoyl)biphenyl-4-carboxylic acid]	6.00 to 6.52
CN(C[C@H](O)CNC(C)(C)Cc1ccc2ccccc2c1)S(=O)(=O)c1cccc(-c2ccc(C(=O)O)cc2)c1 [Exp. 3-6, (R)-3′-(N-(2-hydroxy-3-(2-methyl-1-(naphthalen-2-yl)propan-2-ylamino)propyl)-N-methylsulfamoyl)biphenyl-4-carboxylic acid]	6.00 to 6.52
Cc1ccc(-c2ccc(S(=O)(=O)N(C)C[C@H](O)CNC(C)(C)Cc3ccc4ccccc4c3)cc2)cc1C(=O)O [Exp. 3-32, (R)-4′-(N-(2-hydroxy-3-(2-methyl-1-(naphthalen-2-yl)propan-2-ylamino)propyl)-N-methylsulfamoyl)-4-methylbiphenyl-3-carboxylic acid]	5.52 to 6.00
CN(C[C@H](O)CNC(C)(C)Cc1ccc2ccccc2c1)S(=O)(=O)c1ccc(-c2ccc(C(=O)O)cc2)cc1 [Exp. 3-31, (R)-4′-(N-(2-hydroxy-3-(2-methyl-1-(naphthalen-2-yl)propan-2-ylamino)propyl)-N-methylsulfamoyl)biphenyl-4-carboxylic acid]	6.00 to 6.52
Cc1ccc(-c2cccc(S(=O)(=O)N(C)C[C@H](O)CNC(C)(C)CC3Cc4ccccc4C3)c2)cc1C(=O)O [Exp. 3-51, (R)-3′-(N-(3-(1-(2,3-dihydro-1H-inden-2-yl)-2-methylpropan-2-ylamino)-2-hydroxypropyl)-N-methylsulfamoyl)-4-methylbiphenyl-3-carboxylic acid]	6.00 to 6.52

Other lines, results leading:

pIC50	SMILES
6.00 to 6.52	CN(C[C@H](O)CNC(C)(C)Cc1ccc2ccccc2c1)S(=O)(=O)c1ccc(-c2ccccc2C(=O)O)cc1 [Exp. 3-29, (R)-4′-(N-(2-hydroxy-3-(2-methyl-1-(naphthalen-2-yl)propan-2-ylamino)propyl)-N-methylsulfamoyl)biphenyl-2-carboxylic acid]
≥ 6.52	CN(C[C@H](O)CNC(C)(C)CC1Cc2ccccc2C1)S(=O)(=O)c1cccc(-c2cccc(C(=O)O)c2F)c1 [Exp. 3-201, (R)-3′-(N-(3-(1-(2,3-dihydro-1H-inden-2-yl)-2-methylpropan-2-ylamino)-2-hydroxypropyl)-N-methylsulfamoyl)-2-fluorobiphenyl-3-carboxylic acid]
≥ 6.52	CN(C[C@H](O)CNC(C)(C)CC1Cc2ccccc2C1)S(=O)(=O)c1cc(-c2ccc(CCC(=O)O)s2)cc(C(F)(F)F)c1 [Exp. 8-1, (R)-3-(5-(3-(N-(3-(1-(2,3-dihydro-1H-inden-2-yl)-2-methylpropan-2-ylamino)-2-hydroxypropyl)-N-methylsulfamoyl)-5-(trifluoromethyl)phenyl)thiophen-2-yl)propionic acid]
6.00 to 6.52	CN(C[C@H](O)CNC(C)(C)Cc1ccc2ccccc2c1)S(=O)(=O)c1ccc(-c2ccc(SCC(=O)O)cc2)cc1 [Exp. 3-47, (R)-2-(4′-(N-(2-hydroxy-3-(2-methyl-1-(naphthalen-2-yl)propan-2-ylamino)propyl)-N-methylsulfamoyl)biphenyl-4-ylthio)acetic acid]
≥ 6.52	CN(C[C@H](O)CNC(C)(C)CC1Cc2ccccc2C1)S(=O)(=O)c1cc(-c2ccc(F)c(C(=O)O)c2)cc(C(F)(F)F)c1 [Exp. 3-193, (R)-3′-(N-(3-(1-(2,3-dihydro-1H-inden-2-yl)-2-methylpropan-2-ylamino)-2-hydroxypropyl)-N-methylsulfamoyl)-4-fluoro-5′-(trifluoromethyl)biphenyl-3-carboxylic acid]
≥ 6.52	CN(C[C@H](O)CNC(C)(C)CC1Cc2ccccc2C1)S(=O)(=O)c1cccc(-c2ccc(NC(=O)CCC(=O)O)cc2)c1 [Exp. 3-59, (R)-4-(3′-(N-(3-(1-(2,3-dihydro-1H-inden-2-yl)-2-methylpropan-2-ylamino)-2-hydroxypropyl)-N-methylsulfamoyl)biphenyl-4-ylamino)-4-oxobutanoic acid]

From patent US8039514B2, “Sulfonamide compounds and use thereof” (Asahi Kasei Pharma Corporation, priority 2008, dated 2011)
